# Assay results: paper PMC4020785 (PLoS ONE, 2014)
# Experiments:
# [1] = tested on: HIV-1 clone ZM247Fv-1 (subtype C); experiment: HIV-1 ZM247Fv-1 (subtype C) infection of human PBMCs, Cell Titer Blue readout; type: cell-based
# Experimental: Human PMBCs were incubated with 100 U recombinant IL-2 (Sigma-Aldrich) and 5 µg/mL phytohemagglutinin-P (PHA-P) (Difco) for 5 days at 37°C. MT-4 cells (1×10^6) or treated PBMCs (1.2×10^8) were infected with HIV-1 clone NL-4.3 or ZM247Fv-1 (MOI of 0.001) by spinoculation (1200 g at room temperature for 2 h). Uninfected cells were used as negative control and were also subjected to the spinoculation process. After spinoculation, supernatants were discarded and cells were resuspended in 10 mL of R10. Cells from each condition were then added to wells (96-well plate) containing serial dilutions of each ISD. For MT-4 cells, each dilution was done in sextuplicates and, for PBMCs, in triplicates. Cells were also incubated with different concentrations of ZDV as positive control. After 5 days in culture, Cell Titer Blue was added to each well and cells were incubated for additional 24 h. The median effective concentration for each drug is defined as EC50. In parallel with the infectivity assay, the same cell types were treated with different concentrations of drugs to determine their cytotoxicity, following the protocol described above. Drug concentration that results in a 50% decrease in viable cells is defined as the CC50 for each compound. EC50 was calculated according to Spearman-Karber and therapeutic index was defined by the ratio between CC50 and EC50 [55].
# All statistical analyses were performed using program GraphPism version 6.0. Titrations for TCID50 infectivity were calculated by the Spearman-Karber method. Dose response curves to ISDs with HIV-1 subtype B and C were done using non-linear regression and were fit to the Hill equation.
# [2] = tested on: HIV-1 p24 in J-Lat clones; experiment: HIV-1 p24 production in J-Lat clones (ELISA); type: cell-based; details: J-Lat clones, GFP and p24 taken together
# Experimental: (§1) ACH-2 and J1.1 are clonal cell lines derived from CEM [52] and Jurkat cells, respectively, after infection with HIV-1. U1 cells were derived from the human promonocyte cell line U937 and chronically infected with HIV-1 [54]. Each cell line (1×10^6 cells) was incubated in the presence of 1 µM of diterpenes (ING-A, ING-B, ING-C, prostratin and PMA) or 10 ng/mL TNF-α for 48 h at 37°C. After incubation, cells were centrifuged and supernatants were collected for the quantitation of gag p24 antigen by ELISA, following the protocol described by the manufacturer (Perkin Elmer).
# To assess whether the GFP expression levels induced by ISDs in J-Lats led to viral production, all five clones were stimulated with 1 µM of each compound for 48 h and production of HIV-1 p24 was measured in the culture supernatant by ELISA. Levels of p24 were proportional to GFP expression in clones 6.3 and 9.2, whereas levels in clone 8.4 were lower when compared to GFP (Figure 3A).
# HIV LTR in J-Lat clones = experiment: LTR-driven GFP expression in J-Lat clones; type: cell-based, HIV-1
# Experimental: J-Lat cells are Jurkat cells stably transfected by an HIV genome whose nef sequence was replaced by the GFP gene. Also, a frameshift mutation was introduced to the env gene to prevent virus spread. […] To test the ISDs, a million cells of each clone were treated with different concentrations of each compound (ING-A, ING-B, ING-C, prostratin and PMA) at 37°C. TNF-α (10 ng/mL) was used as a positive control. After 48 h, cells were collected, washed with saline solution (PBS) and GFP expression was evaluated in a FACScalibur cytometer (BD Biosciences). Data were analyzed with Cell Quest Pro software (BD Biosciences).
# [3] = tested on: J-Lat (clones 9.2 and 10.6); experiment: Cell viability of J-Lat clones 9.2 and 10.6 (CellTiter-blue); type: cell-based; details: J-Lat clones 9.2 and 10.6, 48 h
# Experimental: Cytotoxicity of ISDs was evaluated in J-Lat (clones 9.2 and 10.6) and PHA-activated human PBMCs. […] Cell viability was determined using the CellTiter-blue fluorescence Cell Viability Assay (Promega) following the manufacturer's instruction.
# [4] = parameters: method as in personal communication from Bioqual – Rockville, USA; details: Rhesus macaques, orally treated at similar dose; ref personal communication from Bioqual – Rockville, USA; cited from earlier work
# human PBMCs = experiment: Cytotoxicity in human PBMCs at 24 and 72 h; type: cell-based
# Experimental: Cytotoxicity of ISDs was evaluated in J-Lat (clones 9.2 and 10.6) and PHA-activated human PBMCs. Cells were added to wells in a 96-well plate in the presence of various concentrations of ISDs, PMA or prostratin in sextuplicates for 24 and 72 h. Cell viability was determined using the CellTiter-blue fluorescence Cell Viability Assay (Promega) following the manufacturer's instruction.
# [5] = parameters: method as in earlier work; details: rats, oral dosing; ref personal communication from Aurigon Life Science – Tutzing, Germany; cited from earlier work
# J1.1 cells = experiment: gag p24 production in J1.1 cells (ELISA); type: cell-based, HIV-1; details: 1 µM, 48 h
# Experimental: as §1
# [6] = tested on: CD4, CXCR4, CCR5 on CD4+ T lymphocytes; experiment: Surface CD4, CXCR4, CCR5 expression in CD4+ T lymphocytes (cytometry); type: cell-based, human; details: cells from three donors, different concentrations, 24 h
# Experimental: For analysis of cell surface marker expression, MT-4 cells and bead-selected CD4+ T cells (described above) were incubated with 1 µM of each compound (ING-A, ING-B, ING-C, prostratin, PMA, and bryostatin-1) at 37°C for 48 h. After incubation, cells were washed with PBS and incubated for 20 min at room temperature with antibodies against CD3-Brilliant Violet 510 (clone OKT3 – Biolegend), CD4-Qdot 655 (clone 53.5 - Life Technologies), CXCR4-PE (clone 1265 - BD Biosciences), CCR5-PerCP-Cy5.5 (clone 3A9 - BD Biosciences), CD69-Pacific Blue (clone FN50 – BD Biosciences), CD38-FITC (clone AT-1 – Stem Cell Technologies), CD25-APC (clone 2A3 – BD Biosciences), HLA-DR-Qdot 605 (clone TÜ36 – Life Technologies) and a marker for annexin V-FITC (Life Technologies). Cells (both MT-4 cells and CD4+ T cells) were initially incubated for 2 h with different PKC inhibitors (GÖ6983, GÖ6976 or RO-31-8220). Then, ING-B, prostratin or PMA at 1 µM or TNF-α at 10 ng/mL were added to each condition and incubation was carried out for 24 h at 37°C. Similar protocol was used for the analysis of PKC inhibitors in J-Lat clones 9.2 and 10.6. GFP expression, surface marker expression and activation marker were evaluated on a LSR Fortessa cytometer (BD Biosciences). Data analysis was performed using FlowJo software (Tree Star).
compound,measurement,setting,value
"CCCCCC(=O)O[C@H]1C(C)=C[C@]23C(=O)[C@@H](C=C(CO)[C@@H](O)[C@]12O)[C@H]1[C@@H](C[C@H]3C)C1(C)C [ING-B, ingenol-3-hexanoate]",TI (CC50/EC50),"[1]; Human PBMC, Subtype C (R5)",851
same,EC50,"[1]; Human immunodeficiency virus 1, PBMC",47 nM
same,"HIV-LTR activation, overall comparison",[2],equivalent levels to PMA and TNF-α
same,GFP induction compared with other compounds,"HIV LTR in J-Lat clones; J-Lat clone 10.6, 48 h","slightly more active than ING-A, ING-C and prostratin"
same,"levels of GFP expression, rank order","HIV LTR in J-Lat clones; J-Lat clones 9.2 and 10.6, 48 h, all concentrations tested",PMA = ING-B > ING-A = ING-C > prostratin
same,cell viability / toxicity,[3],lower toxicity when compared to its counterparts
same,side effects,[4],negligible side effects
same,cytotoxicity,human PBMCs,less cytotoxic after 72 h of treatment
same,no-observed-adverse-effect level,[5],4 mg/kg/day
same,p24 production (in words),J1.1 cells,"as much p24 production as PMA and TNF-α, and twice as much as prostratin"
same,"downregulation of CD4, CCR5 and CXCR4, dose dependence",[6],dose dependent
